Assays:
[1] = test system: isolated guinea pig pulmonary artery; assay: bradykinin-induced contraction of isolated guinea pig pulmonary artery; conditions: Cavia porcellus, 10 min; isolated vessel strip, contraction by 2×10^-7 mol/l bradykinin, 10 minutes exposure; read-out: antagonistic effect expressed as IC50-value on the guinea pig pulmonary artery
Protocol: For testing the novel compounds on the isolated pulmonary artery, guinea pigs (Dunkin Hartley) having a weight of 400-450 g are killed by a blow to the neck.
The thorax is opened and the pulmonary artery is carefully dissected out. The surrounding tissue is carefully removed and the pulmonary artery is cut open spirally at an angle of 45°.
The blood vessel strip, which is 2.5 cm long and 3-4 mm wide, is fastened in a 10 ml-capacity organ bath which is filled with Ringer solution. […]
95% O2 and 5% CO2 is bubbled through the solution, which is warmed to 37° C. The pH is 7.4 and the initial load on the vessel strip is 1.0 g.
The isotonic contraction changes are detected with a lever attachment and a high frequency modem (distance measuring device) from Hugo Sachs and registered on a potentiometric recorder (BEC, Goerz Metrawatt SE 460).
The experiment is started after 1 hour of equilibration. Once the maximum sensitivity of the vessel strips to 2×10^-7 mol/l bradykinin has been reached--bradykinin causes the vessel strips to contract--the test compounds, at doses of 5×10^-8 -1×10^-5 mol/l, are allowed to exert their effect for 10 minutes in each case and, after bradykinin has been added once again, the decrease in the effect of bradykinin is compared with the control.

bradykinin B2 receptor = molecular target: T1, bradykinin B2 receptor (Cavia porcellus, UniProt O70526); assay: binding to the bradykinin B2 receptor of guinea pig ileum (3H-bradykinin competition); conditions: guinea pig ileum membranes, 3H-bradykinin 0.25 to 0.3 nmol/l; read-out: antagonistic effect expressed as IC50-value on the guinea pig B2 receptor
T1 construct: from tissue; host or cells: guinea pig ileum membranes
T1 sequence (O70526 1-372): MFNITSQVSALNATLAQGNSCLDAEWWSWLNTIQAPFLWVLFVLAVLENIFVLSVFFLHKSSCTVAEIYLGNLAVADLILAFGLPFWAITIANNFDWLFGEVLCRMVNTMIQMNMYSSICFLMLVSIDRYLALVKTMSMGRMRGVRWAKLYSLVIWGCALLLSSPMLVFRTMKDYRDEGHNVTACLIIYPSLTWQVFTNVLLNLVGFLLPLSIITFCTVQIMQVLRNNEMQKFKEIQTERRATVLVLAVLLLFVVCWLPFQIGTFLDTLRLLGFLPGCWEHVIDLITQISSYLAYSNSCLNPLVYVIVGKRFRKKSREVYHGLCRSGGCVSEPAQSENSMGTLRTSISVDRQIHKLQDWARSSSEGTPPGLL
Protocol: The method of measuring binding to the bradykinin B2 receptor of guinea pig ileum is described below (R. B. Innis et al., Proc. NatI. Acad. Sci. USA; 17 (1981) 2630): […] Ligand: ^3 H-BRADYKININ (from NEN Du Pont) 2. Buffer mixtures: a) TES buffer: 25 mM TES (SIGMA, Cat. No.: T-4152) […] Cat. No.: P-9375) b) Incubation buffer: 25 mM TES (SIGMA; Cat. No.: T-4152) […] Cat. No.: P-9375) […] Cat. No.: A-7906) 140 μg/ml bacitracin (SIGMA; Cat. No.: B-0125) […] Cat. No.: D-0632) […] Both buffers are adjusted to pH 6.8 with 5 molar NaOH. 3. Membrane preparation: Guinea pig ilea are roughly freed of intestinal contents by carefully smoothing them out and are cleansed in 0.9% NaCl solution. The approx. 2 cm-long ilea pieces are transferred into ice-cold TES buffer (approx. 1 g/10 ml) and homogenized with an Ultraturrax for approx. 30 sec. in an ice bath. The homogenate is then filtered through 3 layers of gauze and the filtrate is centrifuged at 50,000 g for 10 minutes. The supernatant is discarded and the pellet is rehomogenized in the same volume of TES buffer and centrifuged once again at 50,000 g for 10 minutes. The pellet is rehomogenized in incubation buffer (approx. 1 g/5 ml) and frozen down at -70° C., in 2 ml aliquots, in cryotubes. The protein concentration of the finished membrane suspension is determined by the LOWRY method and should be approx. 15 μg/100 μl. 4. Binding test: All the incubations are carried out, at room temperature for 60 minutes, in a 200 μl volume on microtiter plates (96×300 μl). All the mixtures are in incubation buffer. For this, 50 μl of the radioligand, 50 μl of the preparation to be tested and 100 μl of the membrane suspension are pipetted consecutively into the wells of the microtiter plate. b) Competition experiments (IC50): A fixed quantity of the radioactive ligand (from 0.25 to 0.3 nmol/l ^3 H-bradykinin) and different concentrations of the unlabeled agonists or antagonists are employed for this purpose. 50 μl of the preparations or the standards to be tested, are added, in concentrations of from 10^-5 to 10^-10 mol/l, to in each case 50 μl of the ^3 H-bradykinin solution and the reaction is started by adding 100 μl of membrane suspension. […] As a rule, the preparations which are to be tested for competition are dissolved, at a concentration of 1 mmol/l, in dimethyl sulfoxide (DMSO) and subsequently subjected to further dilution with DMSO. This solution is then diluted 1:25 with incubation buffer. […] The filters, which are still moist, are punched out into mini scintillation vials, which are filled with 3 ml of scintillator. After having been left to soak for approx. 12 hours, the samples are shaken up briefly and measured in a beta counter. c) Screening: […] 4. Evaluation: The evaluation is effected by means of the LIGAND program package (McPherrson, Minson & Rodbard, Marketing: Elsevier-BIOSOFT), which performs the necessary calculations for determining IC50 and Ki values. This program also performs graphic depictions of the saturation and displacement curves and also SCATCHARD plots, HILL plots or HOFSTEE plots.

Structure (SMILES) | IC50 [1] [nM] | IC50 (bradykinin B2 receptor) [nM]
Cc1nc2c(OCc3c(Cl)ccc(N(C)C(=O)CNC(=O)/C=C/c4ccc(C(F)(F)F)cc4)c3Cl)cccc2s1 [Example 3] | < 1000 | < 100
C=C/C=C/C(=O)NCC(=O)N(C)c1ccc(Cl)c(COc2cccc3sc(C)nc23)c1Cl [Example 6] | < 1000 | < 100
COc1cccc(/C=C/C(=O)NCC(=O)N(C)c2ccc(Cl)c(COc3cccc4sc(C)nc34)c2Cl)c1 [Example 11] | < 1000 | < 100
Cc1nc2c(OCc3c(Cl)ccc(N(C)C(=O)CNC(=O)/C=C/c4ccco4)c3Cl)cccc2s1 [Example 12] | < 1000 | < 100

Second part, the molecule after the results:

IC50 [1] [nM] | IC50 (bradykinin B2 receptor) [nM] | Structure (SMILES)
< 1000 | < 100 | Cc1ccc(/C=C/C(=O)NCC(=O)N(C)c2ccc(Cl)c(COc3cccc4sc(C)nc34)c2Cl)cc1 [Example 23]
< 1000 | < 100 | Cc1nc2c(OCc3c(Cl)ccc(N(C)C(=O)CNC(=O)COc4ccc(OC(F)(F)F)cc4)c3Cl)cccc2s1 [Example 37]

— patent US5834500A, “Sulfur-containing heterocyclic bradykinin antagonists, process for their preparation, and their use” (Hoechst Aktiengesellschaft, priority 1996, dated 1998)
